Tests used:
Format in all cases: in vivo
Settings in all cases: 125 g/h, evaluated after 13 days
[1] = tested on: Abutilon theophrasti (ABUTH); test: Pre-emergence glasshouse herbicide test
Description: (§1) Seeds of a variety of test species are sown in standard soil in pots (Lolium perenne (LOLPE), Amaranthus retoflexus (AMARE), Abutilon theophrasti (ABUTH), Setaria faberi (SETFA), Echinochloa crus-galli (ECHCG), Ipomoea hederacea (IPOHE)). After cultivation for one day (pre-emergence) or after 8 days cultivation (post-emergence) under controlled conditions in a glasshouse (at 24/16° C., day/night; 14 hours light; 65% humidity), the plants are sprayed with an aqueous spray solution derived from the formulation of the technical active ingredient in acetone/water (50:50) solution containing 0.5% Tween™ 20 (polyoxyethelyene sorbitan monolaurate, CAS RN 9005-64-5). Compounds are applied at 125 g/h unless otherwise indicated. The test plants are then grown in a glasshouse under controlled conditions in a glasshouse (at 24/16° C., day/night; 14 hours light; 65% humidity) and watered twice daily. After 13 days for pre- and post-emergence, the test is evaluated for the percentage damage caused to the plant. The biological activities are shown in the following table on a five-point scale (5=80-100%; 4=60-79%; 3=40-59%; 2=20-39%; 1=0-19%).

[2] = tested on: Amaranthus retoflexus (AMARE); test: Pre-emergence glasshouse herbicide test
Description: as §1

[3] = tested on: Echinochloa crus-galli (ECHCG); test: Pre-emergence glasshouse herbicide test
Description: as §1

[4] = tested on: Ipomoea hederacea (IPOHE); test: Pre-emergence glasshouse herbicide test
Description: as §1

[5] = tested on: Setaria faberi (SETFA); test: Pre-emergence glasshouse herbicide test
Description: as §1

[6] = tested on: Abutilon theophrasti (ABUTH); test: Post-emergence glasshouse herbicide test
Description: as §1

[7] = tested on: Amaranthus retoflexus (AMARE); test: Post-emergence glasshouse herbicide test
Description: as §1

[8] = tested on: Echinochloa crus-galli (ECHCG); test: Post-emergence glasshouse herbicide test
Description: as §1

[9] = tested on: Ipomoea hederacea (IPOHE); test: Post-emergence glasshouse herbicide test
Description: as §1

[10] = tested on: Setaria faberi (SETFA); test: Post-emergence glasshouse herbicide test
Description: as §1

Structure (SMILES)	percentage damage caused to the plant, ABUTH [1]	percentage damage caused to the plant, AMARE [2]	percentage damage caused to the plant, ECHCG [3]	percentage damage caused to the plant, IPOHE [4]	percentage damage caused to the plant, SETFA [5]	percentage damage caused to the plant, ABUTH [6]	percentage damage caused to the plant, AMARE [7]	percentage damage caused to the plant, ECHCG [8]	percentage damage caused to the plant, IPOHE [9]	percentage damage caused to the plant, SETFA [10]
Cn1nnnc1NC(=O)c1ccc(OCC(F)F)c([S+](C)[O-])c1Cl (centres unmarked) [Compound 1.034]	3 (3=40-59%)	4 (4=60-79%)	4 (4=60-79%)	2 (2=20-39%)	4 (4=60-79%)	4 (4=60-79%)	4 (4=60-79%)	5 (5=80-100%)	3 (3=40-59%)	4 (4=60-79%)
CCCS(=O)(=O)c1c(OC(F)F)ccc(C(=O)Nc2nnnn2CC)c1Cl [Compound 1.051]	5 (5=80-100%)	5 (5=80-100%)	5 (5=80-100%)	4 (4=60-79%)	5 (5=80-100%)	5 (5=80-100%)	5 (5=80-100%)	5 (5=80-100%)	4 (4=60-79%)	5 (5=80-100%)
CCn1nnnc1NC(=O)c1ccc(OC(F)F)c(S(=O)(=O)CC(C)C)c1Cl [Compound 1.053]	5 (5=80-100%)	5 (5=80-100%)	5 (5=80-100%)	4 (4=60-79%)	5 (5=80-100%)	5 (5=80-100%)	5 (5=80-100%)	5 (5=80-100%)	5 (5=80-100%)	5 (5=80-100%)
CCSc1c(OC(F)F)ccc(C(=O)Nc2nnnn2C)c1Cl [Compound 1.027]	5 (5=80-100%)	5 (5=80-100%)	5 (5=80-100%)	3 (3=40-59%)	5 (5=80-100%)	5 (5=80-100%)	5 (5=80-100%)	5 (5=80-100%)	4 (4=60-79%)	5 (5=80-100%)
CC[S+]([O-])c1c(OC(F)F)ccc(C(=O)Nc2nnnn2C)c1Cl (centres unmarked) [Compound 1.026]	5 (5=80-100%)	5 (5=80-100%)	5 (5=80-100%)	5 (5=80-100%)	5 (5=80-100%)	5 (5=80-100%)	5 (5=80-100%)	5 (5=80-100%)	5 (5=80-100%)	5 (5=80-100%)
Cc1c(C(=O)Nc2nnnn2C)ccc(OC(F)(F)F)c1S(C)(=O)=O [Compound 1.013]	5 (5=80-100%)	5 (5=80-100%)	5 (5=80-100%)	5 (5=80-100%)	5 (5=80-100%)	5 (5=80-100%)	5 (5=80-100%)	5 (5=80-100%)	5 (5=80-100%)	5 (5=80-100%)
CC[S+]([O-])c1c(CC(F)(F)F)ccc(C(=O)Nc2nnnn2C)c1Cl (centres unmarked) [Compound 1.020]	5 (5=80-100%)	5 (5=80-100%)	5 (5=80-100%)	5 (5=80-100%)	5 (5=80-100%)	5 (5=80-100%)	5 (5=80-100%)	5 (5=80-100%)	5 (5=80-100%)	5 (5=80-100%)
CCSc1c(OCC(F)(F)F)ccc(C(=O)Nc2nnnn2C)c1Cl [Compound 1.037]	3 (3=40-59%)	5 (5=80-100%)	4 (4=60-79%)	1 (1=0-19%)	3 (3=40-59%)	5 (5=80-100%)	5 (5=80-100%)	5 (5=80-100%)	3 (3=40-59%)	5 (5=80-100%)
CCSc1c(OC(F)F)ccc(C(=O)Nc2nnc(C)o2)c1Cl [Compound 2.012]	4 (4=60-79%)	5 (5=80-100%)	5 (5=80-100%)	3 (3=40-59%)	5 (5=80-100%)	5 (5=80-100%)	5 (5=80-100%)	5 (5=80-100%)	4 (4=60-79%)	5 (5=80-100%)
CCS(=O)(=O)c1c(OC(F)(F)F)ccc(C(=O)Nc2nnc(C)o2)c1C [Compound 2.011]	5 (5=80-100%)	5 (5=80-100%)	5 (5=80-100%)	5 (5=80-100%)	5 (5=80-100%)	5 (5=80-100%)	5 (5=80-100%)	5 (5=80-100%)	4 (4=60-79%)	5 (5=80-100%)
CCS(=O)(=O)c1c(CC(F)(F)F)ccc(C(=O)Nc2nnnn2C)c1Cl [Compound 1.022]	5 (5=80-100%)	5 (5=80-100%)	5 (5=80-100%)	5 (5=80-100%)	5 (5=80-100%)	5 (5=80-100%)	4 (4=60-79%)	5 (5=80-100%)	5 (5=80-100%)	5 (5=80-100%)
CCn1nnnc1NC(=O)c1ccc(OC(F)(F)F)c(S(=O)(=O)CC)c1C [Compound 1.046]	5 (5=80-100%)	5 (5=80-100%)	5 (5=80-100%)	5 (5=80-100%)	5 (5=80-100%)	5 (5=80-100%)	5 (5=80-100%)	5 (5=80-100%)	5 (5=80-100%)	5 (5=80-100%)
CCn1nnnc1NC(=O)c1ccc(OCC(F)(F)F)c(S(=O)(=O)CC)c1C [Compound 1.063]	5 (5=80-100%)	5 (5=80-100%)	5 (5=80-100%)	4 (4=60-79%)	5 (5=80-100%)	5 (5=80-100%)	5 (5=80-100%)	5 (5=80-100%)	3 (3=40-59%)	5 (5=80-100%)
CCS(=O)(=O)c1c(CC(F)(F)F)ccc(C(=O)Nc2nnnn2C)c1C [Compound 1.024]	5 (5=80-100%)	5 (5=80-100%)	5 (5=80-100%)	5 (5=80-100%)	5 (5=80-100%)	5 (5=80-100%)	5 (5=80-100%)	5 (5=80-100%)	5 (5=80-100%)	5 (5=80-100%)

Source: patent US20220402882A1, “HERBICIDAL COMPOUNDS” (SYNGENTA CROP PROTECTION AG, priority 2019, published 2022)
